Our source for the solubility values is patent US20230002346A1, “NEW COMPOUNDS AND METHODS” (BenevolentAl Bio Limited, priority 2019, published 2023).

Structures are written as SMILES. ≈ marks a conversion by molar mass, not a printed value.

The nature of this series: Kinetic aqueous solubility assay. In kind it is physicochemical. Conditions: aqueous buffer, kinetic from dmso stock, 0.05M potassium phosphate buffer pH 7.4, 250 μM spike, RT. The procedure: Using a 10 mM stock solution of test compound in 100% DMSO, test compounds were spiked into 0.05M potassium phosphate buffer (pH 7.4) at a final concentration of 250 μM. Samples in buffer (n=2 aqueous samples, in 96-well plates) were allowed to equilibrate at RT on an orbital shaker for 30 min (300 rpm) to induce precipitation of test compounds. The appearance of each sample was determined by visual examination and noted (clear, cloudy, precipitate observed etc.). […] The concentration of compound in phosphate buffer filtrate was determined by comparing the UV absorbance peak area of each replicate against that of the calibration standards. […] Compounds of the invention have much improved solubility compared to the reference examples.
A word on the solubility: it is how much of the substance goes into solution per volume. A higher solubility goes with much dissolved substance. Turning to `N#Cc1cccc(-n2cc(C(=O)Nc3ccc(OC(F)(F)Cl)cc3)ccc2=O)c1` [Example 20, N-[4-(Chlorodifluoromethoxy)phenyl]-1-(3-cyanophenyl)-6-oxo-1,6-dihydropyridine-3-carboxamide], the solubility at 30 min came out at 100 µM (≈ 41.6 µg/mL).
For `N#Cc1cncc(-n2cc(C(=O)Nc3ccc(OC(F)(F)Cl)cc3)ccc2=O)c1` [Example 55, N-[4-[Chloro(difluoro)methoxy]phenyl]-1-(5-cyano-3-pyridyl)-6-oxo-pyridine-3-carboxamide] the value was 150 µM (≈ 62.5 µg/mL).
Turning to `COc1cc(C(=O)Nc2ccc(OC(F)(F)Cl)cc2)cn(-c2cncnc2)c1=O` [Example 58, N-[4-[Chloro(difluoro)methoxy]phenyl]-5-methoxy-6-oxo-1-pyrimidin-5-yl-pyridine-3-carboxamide], the solubility at 30 min amounted to 180 µM (≈ 76.1 µg/mL).
For `Cn1ncc(-n2cc(C(=O)Nc3ccc(OC(F)(F)Cl)cc3)ccc2=O)c1Cl` [Example 30, 1-(5-Chloro-1-methyl-1H-pyrazol-4-yl)-N-[4-(chlorodifluoromethoxy)phenyl]-6-oxo-1,6-dihydropyridine-3-carboxamide] the value was 140 µM (≈ 60.1 µg/mL).
In turn, `CN1CC[C@@H](n2cc(C(=O)Nc3ccc(OC(F)(F)Cl)cc3)ccc2=O)C1` [Example 16, N-[4-[Chloro(difluoro)methoxy]phenyl]-1-[(3R)-1-methylpyrrolidin-3-yl]-6-oxo-pyridine-3-carboxamide] gave a solubility at 30 min of 180 µM (≈ 71.6 µg/mL).
`COc1ncc(-n2cc(C(=O)Nc3ccc(OC(F)(F)Cl)cc3)ccc2=O)cn1` [Example 12, N-[4-[Chloro(difluoro)methoxy]phenyl]-1-(2-methoxypyrimidin-5-yl)-6-oxo-pyridine-3-carboxamide] gave a solubility at 30 min of 140 µM (≈ 59.2 µg/mL).
In turn, `Cn1nccc1-n1cc(C(=O)Nc2ccc(OC(F)(F)Cl)cc2)ccc1=O` [Example 25, N-[4-(Chlorodifluoromethoxy)phenyl]-1-(1-methyl-1H-pyrazol-5-yl)-6-oxo-1,6-dihydropyridine-3-carboxamide] came in with a solubility at 30 min of 170 µM (≈ 67.1 µg/mL).
`O=C(Nc1ccc(OC(F)(F)Cl)cc1)c1ccc(=O)n(-c2cnn(C(F)F)c2)c1` [Example 27, N-[4-(Chlorodifluoromethoxy)phenyl]-1-[1-(difluoromethyl)-1H-pyrazol-4-yl]-6-oxo-1,6-dihydropyridine-3-carboxamide] registered a solubility at 30 min of 100 µM (≈ 43.1 µg/mL).
Take `O=C(Nc1ccc(OC(F)(F)Cl)cc1)c1ccc(=O)n([C@H]2CCOC2)c1` [Example 4, N-[4-[Chloro(difluoro)methoxy]phenyl]-6-oxo-1-[(3S)-tetrahydrofuran-3-yl]pyridine-3-carboxamide]: the solubility at 30 min was found to be 180 µM (≈ 69.3 µg/mL).
Take `Cc1cncc(-n2cc(C(=O)Nc3ccc(OC(F)(F)Cl)cc3)ccc2=O)c1` [Example 57, N-[4-[Chloro(difluoro)methoxy]phenyl]-1-(5-methyl-3-pyridyl)-6-oxo-pyridine-3-carboxamide]: the solubility at 30 min was 170 µM (≈ 69 µg/mL). This solubility at 30 min and that of the molecule before are within 1.5-fold of each other.
For `O=C(Nc1ccc(OC(F)(F)F)cc1)c1ccc(=O)n(CCN2CCOCC2)c1` [Example 2, 1-(2-Morpholinoethyl)-6-oxo-N-[4-(trifluoromethoxy)phenyl]pyridine-3-carboxamide], the solubility at 30 min is 215 µM (≈ 88.4 µg/mL). This solubility at 30 min and that of the molecule before are within 1.5-fold of each other.
`Cc1cc(C(=O)Nc2ccc(OC(F)(F)Cl)cc2)cn(-c2cncnc2)c1=O` [Example 59, N-[4-[Chloro(difluoro)methoxy]phenyl]-5-methyl-6-oxo-1-pyrimidin-5-yl-pyridine-3-carboxamide] had a solubility at 30 min of 190 µM (≈ 77.3 µg/mL).
For `Cn1cc2ncc(-n3cc(C(=O)Nc4ccc(OC(F)(F)Cl)cc4)ccc3=O)cc2n1` [Example 71, N-[4-(Chlorodifluoromethoxy)phenyl]-1-{2-methyl-2H-pyrazolo[4,3-b]pyridin-6-yl}-6-oxo-1,6-dihydropyridine-3-carboxamide] the value was 110 µM (≈ 49 µg/mL); for `O=C(Nc1ccc(OC(F)(F)Cl)cc1)c1cc(N2CCOCC2)c(=O)n(-c2cncnc2)c1` [Example 60, N-[4-(Chlorodifluoromethoxy)phenyl]-5-(morpholin-4-yl)-6-oxo-1-(pyrimidin-5-yl)-1,6-dihydropyridine-3-carboxamide], 210 µM (≈ 100 µg/mL).
